15 molecules from patent US9926297B2, “Bicyclic AZA compounds as muscarinic M1 receptor and/or M4 receptor agonists” (Heptares Therapeutics Limited, priority 2014, dated 2018) can be followed below.

Test [1] addresses T1, human muscarinic M1 receptor (Homo sapiens, UniProt P11229).
T1 sequence (P11229 1-460): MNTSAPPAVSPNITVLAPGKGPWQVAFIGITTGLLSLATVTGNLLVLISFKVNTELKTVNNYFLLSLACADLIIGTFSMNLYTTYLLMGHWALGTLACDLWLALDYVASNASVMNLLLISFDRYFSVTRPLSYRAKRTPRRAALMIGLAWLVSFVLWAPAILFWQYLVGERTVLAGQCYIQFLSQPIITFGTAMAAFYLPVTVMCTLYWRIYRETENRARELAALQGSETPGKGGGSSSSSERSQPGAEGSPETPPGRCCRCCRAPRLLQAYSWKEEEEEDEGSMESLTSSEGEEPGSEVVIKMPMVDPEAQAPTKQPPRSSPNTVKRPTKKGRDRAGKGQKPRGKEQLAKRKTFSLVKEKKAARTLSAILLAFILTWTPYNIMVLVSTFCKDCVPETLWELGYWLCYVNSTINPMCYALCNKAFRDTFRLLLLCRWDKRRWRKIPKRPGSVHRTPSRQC
As to the kind of experiment: Alphascreen Surefire phospho-ERK1/2 functional assay, M1. Format: cell-based. Particulars: for EC50: read-out: pEC50 M1 (converted); for Emax: CHO, read-out: % Emax cf. ACh, M1, CHO cells stably expressing human M1; for Emax / % Emax cf. ACh, M1: relative to ACh.

Test [2] concerns the target T2, human muscarinic M4 receptor (Homo sapiens, UniProt P08173).
T2 construct: expressed in transfected cells
T2 sequence (P08173 1-479): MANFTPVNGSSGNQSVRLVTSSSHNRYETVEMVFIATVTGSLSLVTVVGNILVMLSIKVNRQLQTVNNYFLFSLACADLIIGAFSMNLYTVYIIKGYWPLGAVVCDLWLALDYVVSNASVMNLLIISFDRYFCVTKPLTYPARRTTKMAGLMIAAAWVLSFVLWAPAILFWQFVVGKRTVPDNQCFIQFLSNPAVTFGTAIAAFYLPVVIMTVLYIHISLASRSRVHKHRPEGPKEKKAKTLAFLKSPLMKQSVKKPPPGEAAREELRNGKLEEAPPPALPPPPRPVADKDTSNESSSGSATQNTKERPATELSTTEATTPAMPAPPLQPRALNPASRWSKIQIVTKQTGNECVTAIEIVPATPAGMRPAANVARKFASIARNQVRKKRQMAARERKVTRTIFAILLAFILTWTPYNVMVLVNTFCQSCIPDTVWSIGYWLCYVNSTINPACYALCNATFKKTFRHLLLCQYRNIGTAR
As to the kind of experiment: Alphascreen Surefire phospho-ERK1/2 functional assay, M4. Format: cell-based. As to conditions: for EC50 / % Emax cf. ACh, M4: CHO cells stably expressing human M4; for EC50: phospho-ERK1/2, * = variable results, read-out: pEC50 M4 (converted); for Emax: CHO, read-out: % Emax cf. ACh, M4, CHO cells stably expressing human M4; for Emax / % Emax cf. ACh, M4: relative to ACh.

Test [3] addresses T3, human muscarinic M2 receptor (Homo sapiens, UniProt P08172).
T3 sequence (P08172 1-466): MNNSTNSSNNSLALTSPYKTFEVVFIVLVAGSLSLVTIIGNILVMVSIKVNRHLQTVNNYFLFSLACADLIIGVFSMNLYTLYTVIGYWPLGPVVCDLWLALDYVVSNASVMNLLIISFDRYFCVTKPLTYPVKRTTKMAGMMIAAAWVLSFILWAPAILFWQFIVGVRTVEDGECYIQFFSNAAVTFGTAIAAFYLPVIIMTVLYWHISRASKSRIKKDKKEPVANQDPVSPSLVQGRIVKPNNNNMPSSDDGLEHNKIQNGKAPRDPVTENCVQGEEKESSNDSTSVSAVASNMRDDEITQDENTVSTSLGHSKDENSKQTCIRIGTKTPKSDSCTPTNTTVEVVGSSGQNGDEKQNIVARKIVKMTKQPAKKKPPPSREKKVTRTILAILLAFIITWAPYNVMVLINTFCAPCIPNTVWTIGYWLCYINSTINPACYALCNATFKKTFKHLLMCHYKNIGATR
In words: Alphascreen Surefire phospho-ERK1/2 functional assay, M2. As to conditions: for Emax: CHO, read-out: % Emax cf. ACh, M2, CHO cells stably expressing human M2; for Emax / % Emax cf. ACh, M2: relative to ACh. (In general: Bead proximity is the source of the signal in Alpha formats.)

Test [4] has as its target human muscarinic M3 receptor (Homo sapiens, UniProt P20309). In words: Alphascreen Surefire phospho-ERK1/2 functional assay, M3. Particulars: for Emax: CHO, read-out: % Emax cf. ACh, M3, CHO cells stably expressing human M3; for Emax / % Emax cf. ACh, M3: relative to ACh; for EC50: pEC50 M3, CHO cells stably expressing human M3.
Experimental: CHO cells stably expressing the human muscarinic M1, M2, M3 or M4 receptor were plated (25K/well) onto 96-well tissue culture plates in MEM-alpha+10% dialysed FBS. Once adhered, cells were serum-starved overnight. Agonist stimulation was performed by the addition of 5 μL agonist to the cells for 5 min (37° C.). Media was removed and 50 μL of lysis buffer added. After 15 min, a 4 μL sample was transferred to 384-well plate and 7 μL of detection mixture added. Plates were incubated for 2 h with gentle agitation in the dark and then read on a PHERAstar plate reader.
pEC50 and Emax figures were calculated from the resulting data for each receptor subtype.
The mark [5] stands for this setting: CHO cells stably expressing human M1, phospho-ERK1/2, * = variable results.
Setting [6] is: phospho-ERK1/2, * = variable results.
Setting [7] is: CHO cells stably expressing human M1.
Where [8] appears, read: CHO cells stably expressing human M2.
The mark [9] stands for this setting: CHO cells stably expressing human M3.

Sequence of human muscarinic M3 receptor (P20309 whole entry): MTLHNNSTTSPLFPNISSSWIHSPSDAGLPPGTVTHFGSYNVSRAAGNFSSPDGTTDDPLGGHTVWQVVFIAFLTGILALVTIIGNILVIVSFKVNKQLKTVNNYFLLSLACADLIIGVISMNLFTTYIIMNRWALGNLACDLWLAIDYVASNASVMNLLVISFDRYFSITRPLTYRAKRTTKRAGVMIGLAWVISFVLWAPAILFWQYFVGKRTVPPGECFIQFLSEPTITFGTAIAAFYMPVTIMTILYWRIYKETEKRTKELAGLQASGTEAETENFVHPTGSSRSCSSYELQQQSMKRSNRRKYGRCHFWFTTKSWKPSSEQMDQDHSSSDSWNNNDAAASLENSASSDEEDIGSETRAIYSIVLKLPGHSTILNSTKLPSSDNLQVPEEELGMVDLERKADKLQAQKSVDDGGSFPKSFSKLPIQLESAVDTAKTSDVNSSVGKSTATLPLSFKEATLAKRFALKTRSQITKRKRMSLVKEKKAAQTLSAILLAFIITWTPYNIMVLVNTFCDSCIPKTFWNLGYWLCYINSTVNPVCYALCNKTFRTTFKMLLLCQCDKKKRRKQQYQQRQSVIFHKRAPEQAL

Regarding `CCOC(=O)N1CCC2(CC(N3CCC([C@@H]4CCCN4C(=O)OC4CCC4)CC3)C2)C1` (single isomer, unassigned) [2-43 Isomer 2], the EC50 in test [1] (setting [5]) is 3160 nM; in test [2] it was 50.1 nM; in test [3] it was more than 20000 nM; in test [4] (setting [6]), more than 20000 nM. Moreover, the Emax (commonly the size of the effect at its maximum, as opposed to the concentration needed) in test [1] is 19%; in test [2], 47%; in test [3], 4%; in test [4], 5%.

As for `CCOC(=O)N1CCC2(CC(N3CCC([C@@H]4CCCN4C(=O)NCCF)CC3)C2)C1` (single isomer, unassigned) [2-44 Isomer 2], the EC50 in test [1] (setting [5]) is 316 nM; in test [2], 5.01 nM; in test [3], more than 20000 nM; in test [4] (setting [6]), more than 20000 nM. Besides, the Emax is 71% in test [1], 100% in test [2], 4% in test [3] and 8% in test [4].

Turning to `CCOC(=O)N1CCC2(CC(N3CCC([C@@H]4CCCN4C(=O)NCC(F)F)CC3)C2)C1` (single isomer, unassigned) [2-45 Isomer 2], the EC50 in test [1] (setting [5]) was 251 nM; in test [2] it was 5.01 nM; in test [3], more than 20000 nM; in test [4] (setting [6]) it was more than 20000 nM. For the same molecule, the Emax in test [1] came out at 67%; in test [2] it was 111%; in test [3] it was 5%; in test [4], 5%.

For the molecule `CCOC(=O)N1CCC2(CC(N3CCC([C@@H]4CCCN4C(=O)COC)CC3)C2)C1` (single isomer, unassigned) [2-46 Isomer 2], the EC50 was 1580 nM in test [1] (setting [5]), 15.8 nM in test [2], more than 20000 nM in test [3] and more than 20000 nM in test [4] (setting [6]). Moreover, the maximal response (Emax) in test [1] amounted to 32%; in test [2] it was 85%; in test [3], 5%; in test [4] it was 8%.

Regarding `CCOC(=O)N1CCC2(CC(N3CCC([C@@H]4CCCN4C(=O)OCC(F)(F)F)CC3)C2)C1` (single isomer, unassigned) [2-48 Isomer 2], the EC50 in test [1] (setting [5]) is 316 nM; in test [2] it was 10 nM; in test [3] it was more than 20000 nM; in test [4] (setting [6]), more than 20000 nM. In addition, the Emax was 34% in test [1], 81% in test [2], 3% in test [3] and 5% in test [4].

`CCOC(=O)N1CCC2(CC(N3CCC([C@@H]4CCCN4C(=O)OCCOC)CC3)C2)C1` (single isomer, unassigned) [2-50 Isomer 2]: the EC50 was 251 nM in test [1] (setting [5]), 25.1 nM in test [2], more than 20000 nM in test [3] and more than 20000 nM in test [4] (setting [6]). The Emax in test [1] is 63%; in test [2], 73%; in test [3] it was 4%; in test [4], 2%.

In the case of `CCOC(=O)N1CCC2(CC(N3CCC([C@@H]4CCCN4C(=O)OCCN(C)C)CC3)C2)C1` (single isomer, unassigned) [2-51 Isomer 2], the EC50 in test [1] (setting [5]) was more than 20000 nM; in test [2] it was 63.1 nM; in test [3] it was more than 20000 nM; in test [4] (setting [6]), more than 20000 nM. The maximum response (Emax) was 237% in test [1], 53% in test [2], 1% in test [3] and 3% in test [4].

Consider `CCOC(=O)N1CCC2(CC(N3CCC([C@@H]4CCCN4C(=O)CO)CC3)C2)C1` (single isomer, unassigned) [2-52 Isomer 2], for which the EC50 is 631 nM in test [1] (setting [5]), 20 nM in test [2], more than 20000 nM in test [3] and more than 20000 nM in test [4] (setting [6]). Also, the Emax came out at 49% in test [1], 85% in test [2], 4% in test [3] and 4% in test [4].

As to `CCOC(=O)N1CCC2(CC(N3CCC([C@@H]4CCCN4C(=O)CC(F)(F)F)CC3)C2)C1` (single isomer, unassigned) [2-53 Isomer 2], the EC50 was 79.4 nM in test [1] (setting [5]), 7.94 nM in test [2], more than 20000 nM in test [3] and 6310 nM in test [4] (setting [6]). Also, the Emax in test [1] came to 109%; in test [2], 126%; in test [3], 10%; in test [4], 21%.

On to `CCOC(=O)N1CCC2(CC(N3CCC([C@@H]4CCCN4C(=O)NCc4ccccn4)CC3)C2)C1` (single isomer, unassigned) [2-54 Isomer 1], for which the EC50 is more than 20000 nM in test [1] (setting [5]), 15.8 nM in test [2], more than 20000 nM in test [3] and more than 20000 nM in test [4] (setting [6]). The “% Emax cf. ACh, M1” value in test [1] (setting [7]) is listed as 1%. Moreover, the “% Emax cf. ACh, M4” value in test [2] was 45%. Further, in test [3] (setting [8]), the “% Emax cf. ACh, M2” value worked out at 50%. The “% Emax cf. ACh, M3” value in test [4] (setting [9]) worked out at 0%.

For `CCOC(=O)N1CCC2(CC(N3CCC([C@@H]4CCCN4C(=O)NCc4ccccn4)CC3)C2)C1` (single isomer, unassigned) [2-54 Isomer 2], the EC50 in test [1] (setting [5]) was 50.1 nM. In addition, in test [1] (setting [7]), the “% Emax cf. ACh, M1” value is 86%. In test [2], the EC50 was 1.26 nM and the “% Emax cf. ACh, M4” value came to 134%. The “pEC50 M2” value in test [3] (CHO cells stably expressing human M2, phospho-ERK1/2, * = variable results) was less than 4.7. The “% Emax cf. ACh, M2” value in test [3] (setting [8]) came out at 8%. The “pEC50 M3” value in test [4] (CHO cells stably expressing human M3, phospho-ERK1/2, * = variable results) is given as less than 4.7. In addition, in test [4] (setting [9]), the “% Emax cf. ACh, M3” value turned out to be 23%.

Take `CCOC(=O)N1CCC2(CC(N3CCC([C@@H]4CCCN4C(=O)N(C)CC(F)(F)F)CC3)C2)C1` (single isomer, unassigned) [2-55 Isomer 2]: the “pEC50 M1” value in test [1] (setting [5]) is recorded as less than 4.7. Besides, the “% Emax cf. ACh, M1” value in test [1] (setting [7]) is on record as 7%. For the same molecule, the EC50 was 25.1 nM in test [2], more than 20000 nM in test [3] and more than 20000 nM in test [4] (setting [6]). In test [2], the “% Emax cf. ACh, M4” value is listed as 52%. In addition, the values for the Emax in test [3] and in test [4] were 22% and 12%, respectively.

Take `CCOC(=O)N1CCC2(CC(N3CCC([C@@H]4CCCN4C(=O)NC4COC4)CC3)C2)C1` (single isomer, unassigned) [2-56 Isomer 2]: the EC50 in test [1] (setting [5]) was 631 nM; in test [2] it was 5.01 nM; in test [3] it was more than 20000 nM; in test [4] (setting [6]), more than 20000 nM. The Emax in test [1] amounted to 96%; in test [2], 134%; in test [3], 8%; in test [4] it was 0%.

Turning to `CCOC(=O)N1CCC2(CC(N3CCC([C@@H]4CCCN4C(=O)N(C)C4COC4)CC3)C2)C1` (single isomer, unassigned) [2-57 Isomer 2], the EC50 was more than 20000 nM in test [1] (setting [5]), 31.6 nM in test [2], more than 20000 nM in test [3] and more than 20000 nM in test [4] (setting [6]). Also, the Emax worked out at 16% in test [1], 117% in test [2], 25% in test [3] and 4% in test [4].

For the molecule `CCOC(=O)N1CCC2(CC(N3CCC([C@@H]4CCCN4C(=S)CC)CC3)C2)C1` (single isomer, unassigned) [2-58 Isomer 2], the EC50 is 1000 nM in test [1] (setting [5]), 31.6 nM in test [2], more than 20000 nM in test [3] and more than 20000 nM in test [4] (setting [6]). The Emax amounted to 66% in test [1], 156% in test [2], 45% in test [3] and 9% in test [4].
